Where “and” joins values, the source holds several entries; their conditions need not be identical. Equal entries are not always repeated. Inconclusive results and toxic doses are left out. Rule as the data show it: active = T/C of 150% or more; inactive = T/C below 125%.
Test system: L1210 leukemia ip in BDF1 mice, survival T/C
Test: NCI In Vivo Anticancer Drug Screen. Data for tumor model L1210 Leukemia (intraperitoneal) in B6D2F1 (BDF1) mice
Conditions: endpoint: mean survival time, higher = longer survival
Summary of the method: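 Antitumor effect is assessed in tumor-bearing animals. Survival in the compound arm is compared with a vehicle-dosed control arm and expressed as their quotient.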

[1] = dose: 50.0 mg/kg/injection, schedule: Q01DX009 (ip), vehicle: saline
[2] = dose: 100.0 mg/kg/injection, schedule: Q01DX001 (ip), vehicle: saline
[3] = dose: 100.0 mg/kg/injection, schedule: Q04DX003 (ip), vehicle: saline
[4] = dose: 100.0 mg/kg/injection, schedule: Q01DX001 (ip), vehicle: Klucel (hydroxypropylcellulose) (HPC)
[5] = dose: 100.0 mg/kg/injection, schedule: Q01DX009 (ip), vehicle: Klucel (hydroxypropylcellulose) (HPC)
[6] = dose: 200.0 mg/kg/injection, schedule: Q01DX001 (ip), vehicle: Klucel (hydroxypropylcellulose) (HPC)
[7] = dose: 200.0 mg/kg/injection, schedule: Q01DX009 (ip), vehicle: Klucel (hydroxypropylcellulose) (HPC)
[8] = dose: 400.0 mg/kg/injection, schedule: Q01DX001 (ip), vehicle: Klucel (hydroxypropylcellulose) (HPC)
[9] = dose: 400.0 mg/kg/injection, schedule: Q01DX009 (ip), vehicle: Klucel (hydroxypropylcellulose) (HPC)
[10] = dose: 100.0 mg/kg/injection, schedule: Q01DX009 (ip), vehicle: saline with Tween-80
[11] = dose: 200.0 mg/kg/injection, schedule: Q01DX009 (ip), vehicle: saline with Tween-80
[12] = dose: 100.0 mg/kg/injection, schedule: Q01DX009 (ip), vehicle: saline
[13] = dose: 200.0 mg/kg/injection, schedule: Q01DX009 (ip), vehicle: saline
[14] = dose: 400.0 mg/kg/injection, schedule: Q01DX009 (ip), vehicle: saline
[15] = dose: 100.0 mg/kg/injection, schedule: Q04DX003 (ip), vehicle: saline with Tween-80
[16] = dose: 100.0 mg/kg/injection, schedule: Q04DX002 (ip), vehicle: saline with Tween-80
[17] = dose: 200.0 mg/kg/injection, schedule: Q04DX002 (ip), vehicle: saline with Tween-80
[18] = dose: 400.0 mg/kg/injection, schedule: Q04DX002 (ip), vehicle: saline with Tween-80

Measured: T/C

CC(N)Cc1ccccc1 (stereo not given)
inactive: dose: 1.17 mg/kg/injection, schedule: Q04DX003 (ip), vehicle: saline 98 % of control | dose: 2.34 mg/kg/injection, schedule: Q04DX003 (ip), vehicle: saline 98 % of control | dose: 2.5 mg/kg/injection, schedule: Q04DX003 (ip), vehicle: saline 100 % of control | dose: 4.68 mg/kg/injection, schedule: Q01DX009 (ip), vehicle: saline 94 % of control | dose: 4.68 mg/kg/injection, schedule: Q04DX003 (ip), vehicle: saline 93 % of control | dose: 5.0 mg/kg/injection, schedule: Q04DX003 (ip), vehicle: saline 96 % of control | dose: 6.25 mg/kg/injection, schedule: Q01DX009 (ip), vehicle: saline 103 % of control | dose: 9.37 mg/kg/injection, schedule: Q01DX009 (ip), vehicle: saline 93 % of control | dose: 9.37 mg/kg/injection, schedule: Q04DX003 (ip), vehicle: saline 106 % of control | dose: 10.0 mg/kg/injection, schedule: Q04DX003 (ip), vehicle: saline 97 % of control | dose: 12.5 mg/kg/injection, schedule: Q01DX001 (ip), vehicle: saline 96 % of control | dose: 12.5 mg/kg/injection, schedule: Q01DX009 (ip), vehicle: saline 97 % of control | dose: 18.74 mg/kg/injection, schedule: Q04DX003 (ip), vehicle: saline 107 % of control | dose: 18.75 mg/kg/injection, schedule: Q01DX009 (ip), vehicle: saline 87 % of control | dose: 18.75 mg/kg/injection, schedule: Q04DX003 (ip), vehicle: saline 97 % of control | dose: 20.0 mg/kg/injection, schedule: Q04DX003 (ip), vehicle: saline 97 % of control | dose: 25.0 mg/kg/injection, schedule: Q01DX001 (ip), vehicle: saline 101 % of control | dose: 25.0 mg/kg/injection, schedule: Q01DX009 (ip), vehicle: saline 100 % of control | dose: 25.0 mg/kg/injection, schedule: Q04DX003 (ip), vehicle: saline 100 % of control | dose: 37.48 mg/kg/injection, schedule: Q03HX024 (ip), vehicle: saline 96 % of control | dose: 37.5 mg/kg/injection, schedule: Q01DX009 (ip), vehicle: saline 103 % of control | dose: 37.5 mg/kg/injection, schedule: Q04DX003 (ip), vehicle: saline 108 % of control | dose: 40.0 mg/kg/injection, schedule: Q04DX003 (ip), vehicle: saline 103 % of control | dose: 50.0 mg/kg/injection, schedule: Q01DX001 (ip), vehicle: saline 109 % of control | [1] 101 % of control | dose: 50.0 mg/kg/injection, schedule: Q04DX003 (ip), vehicle: saline 100 % of control | dose: 75.0 mg/kg/injection, schedule: Q04DX003 (ip), vehicle: saline 100 % of control | [2] 102 % of control | [3] 105 % of control

C#CCN(Cc1ccccc1)C(=O)Nc1cccc(Cl)c1
inactive: dose: 100.0 mg/kg/injection, schedule: Q04DX003 (ip), vehicle: other 106 % of control | dose: 200.0 mg/kg/injection, schedule: Q04DX003 (ip), vehicle: other 98 % of control | dose: 400.0 mg/kg/injection, schedule: Q04DX003 (ip), vehicle: other 96 % of control

c1ccc([P+](CCN2CCC([P+](c3ccccc3)(c3ccccc3)c3ccccc3)=N2)(c2ccccc2)c2ccccc2)cc1
inactive: dose: 1.56 mg/kg/injection, schedule: Q04DX003 (ip), vehicle: saline 103 % of control | dose: 3.12 mg/kg/injection, schedule: Q04DX003 (ip), vehicle: saline 105 % of control

CCn1c(C)nc2cc(S(=O)(=O)C(F)(F)C(F)Cl)ccc21 (stereo not given)
inactive: [4] 100 % of control | [5] 94 % of control | [6] 97 % of control | [7] 101 % of control | [8] 97 % of control | [9] 106 % of control

CC(=O)Nc1nnc(Sc2n[nH]c(=O)[nH]c2=O)s1
inactive: dose: 10.0 mg/kg/injection, schedule: Q01DX001 (ip), vehicle: saline 98 % of control

CC(C)(C1c2ccccc2C(=O)c2ccccc21)[N+](=O)[O-]
inactive: [5] 101 % of control | dose: 100.0 mg/kg/injection, schedule: Q04DX003 (ip), vehicle: Klucel (hydroxypropylcellulose) (HPC) 98 % of control | [7] 94 % of control | dose: 200.0 mg/kg/injection, schedule: Q04DX003 (ip), vehicle: Klucel (hydroxypropylcellulose) (HPC) 101 % of control | [9] 99 % of control | dose: 400.0 mg/kg/injection, schedule: Q04DX003 (ip), vehicle: Klucel (hydroxypropylcellulose) (HPC) 101 % of control

CC(C)(C)c1ccc(OS(=O)(=O)c2ccccc2[N+](=O)[O-])cc1
inactive: [4] 102 % of control | [6] 98 % of control | [8] 95 % of control

CCCSCC(C)C
inactive: [10] 108 % of control | [11] 98 % of control

CCC(C)NP(=O)(OC1CC(C)(C)N(O)C(C)(C)C1)OC1CC(C)(C)N(O)C(C)(C)C1 (stereo not given)
inactive: dose: 50.0 mg/kg/injection, schedule: Q01DX001 (ip), vehicle: water 98 % of control | dose: 100.0 mg/kg/injection, schedule: Q01DX001 (ip), vehicle: water 98 % of control | dose: 200.0 mg/kg/injection, schedule: Q01DX001 (ip), vehicle: water 94 % of control

O=S(=O)(c1ccccc1)C1CN=NC1c1ccccc1 (stereo not given)
inactive: dose: 50.0 mg/kg/injection, schedule: Q01DX009 (ip), vehicle: acetone 95 % of control | [2] 100 % of control | dose: 100.0 mg/kg/injection, schedule: Q01DX009 (ip), vehicle: acetone 93 % of control | dose: 200.0 mg/kg/injection, schedule: Q01DX001 (ip), vehicle: saline 94 % of control | dose: 200.0 mg/kg/injection, schedule: Q01DX009 (ip), vehicle: acetone 92 % of control | dose: 400.0 mg/kg/injection, schedule: Q01DX001 (ip), vehicle: saline 96 % of control

CC(=O)CCC(=O)OCCOC(=O)CCC(C)=O
inactive: [12] 98 % of control and 105 % of control | [3] 96 % of control and 104 % of control | [13] 93 % of control and 95 % of control | dose: 200.0 mg/kg/injection, schedule: Q04DX003 (ip), vehicle: saline 100 % of control | [14] 98 % of control and 104 % of control | dose: 400.0 mg/kg/injection, schedule: Q04DX003 (ip), vehicle: saline 100 % of control and 106 % of control

C=C1C(=O)OC2CCCC/C=C\C12 (stereo not given)
inactive: [1] 95 % of control | [12] 98 % of control | [13] 95 % of control

O=C(COc1c(Cl)cc(Cl)cc1Cl)Nc1cccnc1
inactive: [4] 100 % of control | [6] 100 % of control | [8] 107 % of control

[O-]/[N+](=C\c1ccccc1)Cc1ccccc1
inactive: dose: 100.0 mg/kg/injection, schedule: Q04DX003 (ip), vehicle: carboxymethylcellulose (CMC) 94 % of control | dose: 200.0 mg/kg/injection, schedule: Q04DX003 (ip), vehicle: carboxymethylcellulose (CMC) 97 % of control

CC(=O)N=C1C=C(NC(C)=O)C(=O)c2ncccc21
inactive: dose: 50.0 mg/kg/injection, schedule: Q04DX003 (ip), vehicle: saline with Tween-80 96 % of control | [15] 96 % of control

CC(=O)OCC(OC(C)=O)C(OC(C)=O)C(C=O)OC(C)=O (stereo not given)
inactive: [4] 105 % of control | [10] 90 % of control | [15] 93 % of control | [6] 97 % of control | [11] 93 % of control | dose: 200.0 mg/kg/injection, schedule: Q04DX003 (ip), vehicle: saline with Tween-80 88 % of control | [8] 105 % of control | dose: 400.0 mg/kg/injection, schedule: Q01DX009 (ip), vehicle: saline with Tween-80 88 % of control | dose: 400.0 mg/kg/injection, schedule: Q04DX003 (ip), vehicle: saline with Tween-80 91 % of control

CCCCC(CCCC)CCCC
inactive: [16] 97 % of control | [17] 106 % of control | [18] 103 % of control

CC(OC1OC(C(=O)O)C(O)C(O)C1O)c1ccccc1 (stereo not given)
inactive: [12] 98 % of control | [13] 97 % of control | [14] 105 % of control

CCOC(=O)c1oc2ccc(OC)c(C(C)=O)c2c1C
inactive: [16] 103 % of control | [17] 107 % of control | [18] 94 % of control
